Results as given in EP0367895A1, “Pyrimidinyl-substituted hydroxyacids, lactones and esters and pharmaceutical compositions containing them” (SANDOZ AG, priority 1988, dated 1990).
pIC50: −log10 of the molar value.

Experiments:
[1] = system: 3β-hydroxysterol synthesis; assay: Test B: in vivo cholesterol biosynthesis inhibition test (as described in EP 114 027); details: dose calculated to produce a 50% inhibition of 3β-hydroxysterol synthesis, test doses between 0.01 mg/kg and 10 mg/kg; for ED50: read-out: ED₅₀
Procedure: Test B. In vivo cholesterol biosynthesis inhibition test: as described in EP 114 027:
ED₅₀ is the dose of the test substance calculated to produce a 50% inhibition of 3β-hydroxysterol synthesis. The studies are run to test doses of between 0.01 mg/kg and 10 mg/kg.

[2] = biological target: T1, 3-hydroxy-3-methylglutaryl coenzyme A (HMG-CoA) reductase (Rattus norvegicus, UniProt P51639); assay: Test A: in vitro microsomal assay of HMG-CoA reductase inhibition (as described in EP 114 027); assay type: biochemical; details: concentration calculated to produce a 50% inhibition of HMG-CoA reductase activity; tests run between 0.05 µM and 1000 µM; read-out: IC₅₀
T1 construct: In vitro microsomal assay of; from tissue; host or cells: Microsomes; it is liver according to own knowledge of EP 114 027
T1 sequence (P51639 1-887): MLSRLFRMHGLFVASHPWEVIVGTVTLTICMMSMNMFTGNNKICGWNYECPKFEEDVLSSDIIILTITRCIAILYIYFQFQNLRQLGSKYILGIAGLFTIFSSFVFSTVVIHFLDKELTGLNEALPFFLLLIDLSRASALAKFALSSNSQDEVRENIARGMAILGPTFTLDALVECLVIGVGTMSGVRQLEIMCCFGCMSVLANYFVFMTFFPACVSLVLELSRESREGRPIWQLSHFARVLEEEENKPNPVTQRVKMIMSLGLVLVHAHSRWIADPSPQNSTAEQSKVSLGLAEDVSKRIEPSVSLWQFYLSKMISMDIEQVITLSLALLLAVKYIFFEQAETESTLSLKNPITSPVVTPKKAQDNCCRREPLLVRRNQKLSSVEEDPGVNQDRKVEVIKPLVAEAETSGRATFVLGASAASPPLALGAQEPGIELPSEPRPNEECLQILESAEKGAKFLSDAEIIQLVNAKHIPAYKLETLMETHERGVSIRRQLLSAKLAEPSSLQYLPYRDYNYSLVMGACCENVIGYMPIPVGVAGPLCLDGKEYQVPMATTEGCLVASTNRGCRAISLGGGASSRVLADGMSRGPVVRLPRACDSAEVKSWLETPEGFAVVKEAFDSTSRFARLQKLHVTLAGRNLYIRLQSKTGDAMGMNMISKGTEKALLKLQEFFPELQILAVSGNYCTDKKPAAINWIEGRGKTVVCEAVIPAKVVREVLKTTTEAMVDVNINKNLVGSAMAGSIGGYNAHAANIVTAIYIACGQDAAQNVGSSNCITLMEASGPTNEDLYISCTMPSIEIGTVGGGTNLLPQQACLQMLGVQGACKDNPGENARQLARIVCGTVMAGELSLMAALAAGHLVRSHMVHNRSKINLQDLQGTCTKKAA
Procedure: Test A. In vitro microsomal assay of 3-hydroxy-3-methylglutaryl coenzyme A (HMG-CoA) reductase inhibition: as described in EP 114 027:
IC₅₀ is the concentration of the test substance in the assay system calculated to produce a 50% inhibition of HMG-CoA reductase activity. The tests are run at concentrations of test substance between 0.05 µM and 1000 µM.

| Compound | ED50 [1] [mg/kg] | pIC50 [2] | ED₅₀ [1] [mg/kg] |
| --- | --- | --- | --- |
| CC(C)c1nc(N(C)C)nc(-c2ccc(F)cc2)c1/C=C/[C@@H](O)C[C@@H](O)CC(=O)[O-].[Na+] [Example 1b), sodium (3R,5S)-[E]-7-[4-(4-fluoro-phenyl)-6-(1-methylethyl)-2-(dimethylamino)pyrimidin-5-yl]-3,5-dihydroxy-6-heptenoate] | 0.028 | 7.59 | – |
| CC(C)c1nc(N(C)C)nc(-c2ccncc2)c1/C=C/[C@@H](O)C[C@@H](O)CC(=O)O [Example 11d] | 0.04 | 7.41 | – |
| Mevinolin [reference compound] | – | – | 0.41 |
